pIC50: −log10 of the molar value.
Legend:
[1] = biological target: Integrin alpha-IIb/beta-3 (Homo sapiens, UniProt P05106+P08514); assay: Inhibition of binding of fibrinogen to purified human GPIIb-IIIa in ELISA; type: protein-complex assay
Homo sapiens = organism: Homo sapiens; assay: Inhibition of aggregation of ADP-stimulated human platelets; type: functional
Integrin alpha-V/beta-3 = Integrin alpha-V/beta-3 (Homo sapiens, UniProt P05106+P06756); assay: Inhibitory concentration against alphaV-beta3 integrin; type: protein-complex assay
Integrin alpha-V/beta-3, sequence (P05106 27-788 limits assumed): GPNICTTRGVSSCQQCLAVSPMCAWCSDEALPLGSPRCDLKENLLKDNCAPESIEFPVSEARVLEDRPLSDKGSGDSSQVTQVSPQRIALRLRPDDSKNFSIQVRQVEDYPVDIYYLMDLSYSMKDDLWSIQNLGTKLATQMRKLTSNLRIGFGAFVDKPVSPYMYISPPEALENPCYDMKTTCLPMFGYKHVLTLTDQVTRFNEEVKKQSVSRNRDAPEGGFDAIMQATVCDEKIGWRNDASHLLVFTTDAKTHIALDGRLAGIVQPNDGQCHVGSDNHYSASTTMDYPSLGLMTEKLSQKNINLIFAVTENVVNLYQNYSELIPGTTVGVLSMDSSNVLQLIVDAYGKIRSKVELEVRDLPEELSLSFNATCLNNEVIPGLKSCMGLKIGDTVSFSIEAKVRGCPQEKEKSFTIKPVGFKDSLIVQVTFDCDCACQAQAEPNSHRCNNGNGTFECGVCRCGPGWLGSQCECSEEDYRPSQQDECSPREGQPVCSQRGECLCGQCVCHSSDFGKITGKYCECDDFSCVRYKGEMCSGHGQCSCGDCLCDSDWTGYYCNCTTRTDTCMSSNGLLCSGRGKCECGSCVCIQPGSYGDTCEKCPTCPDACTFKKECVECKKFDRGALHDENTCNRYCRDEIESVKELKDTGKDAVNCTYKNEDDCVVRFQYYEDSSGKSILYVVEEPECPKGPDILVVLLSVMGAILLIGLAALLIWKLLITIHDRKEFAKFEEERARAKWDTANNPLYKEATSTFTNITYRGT
Integrin alpha-V/beta-3, sequence (P06756 31-889 limits assumed): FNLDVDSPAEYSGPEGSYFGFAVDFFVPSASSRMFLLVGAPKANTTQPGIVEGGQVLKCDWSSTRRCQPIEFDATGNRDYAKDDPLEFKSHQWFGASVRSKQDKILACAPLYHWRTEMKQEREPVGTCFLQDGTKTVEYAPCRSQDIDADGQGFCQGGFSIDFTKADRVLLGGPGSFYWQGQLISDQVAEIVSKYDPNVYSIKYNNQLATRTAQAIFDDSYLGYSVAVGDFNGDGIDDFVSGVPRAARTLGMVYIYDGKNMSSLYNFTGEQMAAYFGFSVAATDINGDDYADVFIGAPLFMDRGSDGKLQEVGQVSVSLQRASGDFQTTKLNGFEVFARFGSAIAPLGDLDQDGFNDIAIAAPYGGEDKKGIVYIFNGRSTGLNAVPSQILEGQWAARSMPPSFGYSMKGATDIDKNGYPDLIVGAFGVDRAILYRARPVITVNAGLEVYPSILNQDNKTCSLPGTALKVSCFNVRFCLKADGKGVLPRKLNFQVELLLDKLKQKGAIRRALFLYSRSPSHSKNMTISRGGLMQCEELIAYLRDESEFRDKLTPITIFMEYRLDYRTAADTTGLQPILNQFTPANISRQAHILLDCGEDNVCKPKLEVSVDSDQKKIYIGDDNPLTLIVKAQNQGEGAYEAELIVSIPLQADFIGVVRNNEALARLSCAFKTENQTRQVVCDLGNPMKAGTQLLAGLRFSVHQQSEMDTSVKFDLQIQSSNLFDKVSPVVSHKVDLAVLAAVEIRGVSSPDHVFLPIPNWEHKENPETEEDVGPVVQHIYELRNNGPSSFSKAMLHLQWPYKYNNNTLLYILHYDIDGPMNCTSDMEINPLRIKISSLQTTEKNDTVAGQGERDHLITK
Integrin alpha-V/beta-3, sequence (P06756 891-1048 limits assumed): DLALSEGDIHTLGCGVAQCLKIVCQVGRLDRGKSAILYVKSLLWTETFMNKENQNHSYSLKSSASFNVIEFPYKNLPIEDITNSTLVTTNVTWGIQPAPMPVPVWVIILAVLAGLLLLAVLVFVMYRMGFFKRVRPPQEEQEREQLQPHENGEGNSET

[2] = Oral bioavailability of compound in Sprague Dawley rats; type: ADME, organism-based; conditions: rat, in vivo

Integrin alpha-IIb/beta-3, sequence (P05106 27-788 limits assumed): as the sequence (P05106 27-788 limits assumed) above
Integrin alpha-IIb/beta-3, sequence (P08514 32-887 limits assumed): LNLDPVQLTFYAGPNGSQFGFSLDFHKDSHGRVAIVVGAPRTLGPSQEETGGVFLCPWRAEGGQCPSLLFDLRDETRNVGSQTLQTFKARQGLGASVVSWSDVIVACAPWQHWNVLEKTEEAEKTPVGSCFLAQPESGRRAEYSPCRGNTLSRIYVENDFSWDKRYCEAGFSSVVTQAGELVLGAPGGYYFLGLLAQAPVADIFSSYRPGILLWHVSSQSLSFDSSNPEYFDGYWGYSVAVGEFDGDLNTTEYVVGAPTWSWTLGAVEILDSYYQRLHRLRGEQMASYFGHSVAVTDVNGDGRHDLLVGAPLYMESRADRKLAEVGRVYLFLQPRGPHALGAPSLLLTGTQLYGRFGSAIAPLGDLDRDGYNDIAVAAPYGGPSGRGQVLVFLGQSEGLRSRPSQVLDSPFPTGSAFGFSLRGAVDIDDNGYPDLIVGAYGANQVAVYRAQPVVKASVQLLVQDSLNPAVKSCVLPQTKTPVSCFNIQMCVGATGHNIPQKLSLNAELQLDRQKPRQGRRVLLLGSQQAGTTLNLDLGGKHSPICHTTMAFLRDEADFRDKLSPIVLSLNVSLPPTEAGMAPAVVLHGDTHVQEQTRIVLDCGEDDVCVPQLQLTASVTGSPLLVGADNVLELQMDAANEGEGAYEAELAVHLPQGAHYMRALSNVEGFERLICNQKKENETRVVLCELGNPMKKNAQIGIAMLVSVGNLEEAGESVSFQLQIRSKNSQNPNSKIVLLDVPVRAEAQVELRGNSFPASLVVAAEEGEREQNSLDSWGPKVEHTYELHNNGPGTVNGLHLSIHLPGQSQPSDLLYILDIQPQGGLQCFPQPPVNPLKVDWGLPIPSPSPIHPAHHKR
Integrin alpha-IIb/beta-3, sequence (P08514 891-1039 limits assumed): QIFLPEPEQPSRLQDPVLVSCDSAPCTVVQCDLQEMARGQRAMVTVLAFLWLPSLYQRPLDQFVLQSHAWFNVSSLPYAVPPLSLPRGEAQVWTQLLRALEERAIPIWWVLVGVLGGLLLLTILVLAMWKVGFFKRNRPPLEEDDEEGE

| SMILES | pIC50 [1] | pIC50 (Homo sapiens) | pIC50 (Integrin alpha-V/beta-3) | bioavailability [2] [%] |
| --- | --- | --- | --- | --- |
| CCCCS(=O)(=O)N[C@@H](CCC(=O)N1CCC2(CC1)CCN(c1ccncc1)CC2)C(=O)O | 7.64 | 6.11 | < 4.00 |  |
| O=C(O)CCCCCC(=O)N1CCC2(CC1)CCN(c1ccncc1)CC2 | 6.57 | 5.34 | < 4.00 |  |
| N=C(N)c1ccc(C(=O)N2CCC3(CCN(C(=O)CCCCC(=O)O)CC3)CC2)cc1 | < 4.00 | 4.73 | < 4.00 |  |
| O=C(O)CCCCCCC(=O)N1CCC2(CC1)CCN(c1ccncc1)CC2 |  | 4.75 | < 4.00 |  |
| O=C(O)CCCCC(=O)N1CCC2(CC1)CCN(c1ccncc1)CC2 |  | 5.34 | < 4.00 |  |
| N=C(N)c1ccc(C(=O)N2CCC3(CCN(C(=O)CCCC(=O)O)CC3)CC2)cc1 |  | 4.99 | < 4.00 |  |
| Cc1noc(C)c1S(=O)(=O)N[C@@H](CNC(=O)N1CCC2(CC1)CCN(c1ccncc1)CC2)C(=O)O |  | 7.41 | < 4.00 |  |
| O=C(O)COC1CCN(C(=O)N2CCC3(CC2)CCN(c2ccncc2)CC3)CC1 | 6.68 | 5.58 | < 4.00 |  |
| Cc1ccc(S(=O)(=O)N[C@@H](CCC(=O)N2CCC3(CC2)CCN(c2ccncc2)CC3)C(=O)O)cc1 |  | 7.11 | < 4.00 |  |
| O=C(O)CC(=O)N1CCC(C(=O)N2CCC3(CC2)CCN(c2ccncc2)CC3)CC1 | 7.37 | 5.93 | < 4.00 |  |
| O=C(O)CCCC(=O)N1CCC2(CC1)CCN(c1ccncc1)CC2 |  | 5.29 | < 4.00 |  |
| N=C(N)c1ccc(C(=O)N2CCC3(CCN(C(=O)CC(=O)O)CC3)CC2)cc1 | 5.01 | 5.03 | < 4.00 |  |
| Cc1noc(C)c1S(=O)(=O)N[C@@H](CCC(=O)N1CCC2(CC1)CCN(c1ccncc1)CC2)C(=O)O |  | 7.68 | < 4.00 | 7.3 |
| CCCCOC(=O)N[C@@H](CCC(=O)N1CCC2(CC1)CCN(c1ccncc1)CC2)C(=O)O | 8.40 | 6.14 | < 4.00 |  |
| N=C(N)c1ccc(N2CCC3(CCN(CCC(=O)O)CC3)CC2)cc1 | 6.80 | 5.94 | < 4.00 |  |
| N=C(N)c1ccc(C(=O)N2CCC3(CCN(C(=O)CCC(=O)O)CC3)CC2)cc1 |  | 4.86 | < 4.00 |  |
| O=C(N[C@@H](CCC(=O)N1CCC2(CC1)CCN(c1ccncc1)CC2)C(=O)O)OCc1ccccc1 |  | 5.34 | < 4.00 |  |

— ChEMBL document CHEMBL1134714, “Spirocyclic nonpeptide glycoprotein IIb-IIIa antagonists. Part 1: design of potent and specific 3,9-diazaspiro[5.5]undecanes” (Bioorg Med Chem Lett, 2001)
